Reference: patent US20150104868A1, “Methods of Maintaining and Improving Biological Cell Function and Activity” (GARGILL INCORPORATED, priority 2012, published 2015)

System: CRL 1730 HUVECs
Assay: Microarray transcriptomics of HUVEC (HGERT/HG, HG/NG)
Format: cell-based, human
Settings: HUVEC; 5 mM ERT + 30 mM glucose vs 30 mM glucose

OC[C@@H](O)[C@@H](O)CO [ERT, meso-1,2,3,4-tetrahydroxybutane]
0.99: HGERT/HG transcript EID2 | HGERT/HG transcript HADH | HGERT/HG transcript HIATL1 | HGERT/HG transcript LUC7L2 | HGERT/HG transcript MFSOL | HGERT/HG transcript NDUFA4 | HGERT/HG transcript OXCT1 | HGERT/HG transcript PHF16 | HGERT/HG transcript PLCD4 | HGERT/HG transcript PLEKHA3 | HGERT/HG transcript RNF20 | HGERT/HG transcript SAMM50 | HGERT/HG transcript SCFD1 | HGERT/HG transcript SEC61G | HGERT/HG transcript SETD3 | HGERT/HG transcript SLC30A6 | HGERT/HG transcript SLC41A2 | HGERT/HG transcript SNX3 | HGERT/HG transcript SNX14 | HGERT/HG transcript SUDS3 | HGERT/HG transcript TIMM8B | HGERT/HG transcript TMEM14C
0.98 Ω: HGERT/HG transcript MAP4K3 | HGERT/HG transcript PAQR3 | HGERT/HG transcript RP2 | HGERT/HG transcript SDHD | HGERT/HG transcript STK39
Ψ 1.07: HGERT/HG transcript SAMHD1
Ψ 1.02: HGERT/HG transcript FBLIM1 | HGERT/HG transcript FURIN | HGERT/HG transcript GJC1 | HGERT/HG transcript GNAI2 | HGERT/HG transcript GPR124 | HGERT/HG transcript LYN | HGERT/HG transcript NOTCH1 | HGERT/HG transcript PDCD7 | HGERT/HG transcript RHOB
Ψ 1.06: HGERT/HG transcript SOS1
Ψ 1.05: HGERT/HG transcript HIP1
Ψ 1.04: HGERT/HG transcript GOLGA2
0.99 Ω: HGERT/HG transcript DDX54 | HGERT/HG transcript DYNLT1 | HGERT/HG transcript ESD | HGERT/HG transcript FASTKD1 | HGERT/HG transcript FASTKD3 | HGERT/HG transcript HLTF | HGERT/HG transcript HSPE1 | HGERT/HG transcript RSU1 | HGERT/HG transcript SLC25A24 | HGERT/HG transcript SLK | HGERT/HG transcript SMOX | HGERT/HG transcript SUCLA2 | HGERT/HG transcript TCEAL1 | HGERT/HG transcript TCF12
1.00 Ω: HGERT/HG transcript IFT20 | HGERT/HG transcript MAGED1
Ψ 1.13: HGERT/HG transcript IFI6
0.97 Ω: HGERT/HG transcript SOAT1
Ψ 1.03: HGERT/HG transcript DCAKD | HGERT/HG transcript GSN | HGERT/HG transcript MARK2 | HGERT/HG transcript MYST4 | HGERT/HG transcript PLEC1 | HGERT/HG transcript SLC2A12
0.98: HGERT/HG transcript MBIP | HGERT/HG transcript MTM1 | HGERT/HG transcript Magmas | HGERT/HG transcript NAP8 | HGERT/HG transcript SACM1L | HGERT/HG transcript SFT2D2 | HGERT/HG transcript SFXN4 | HGERT/HG transcript SLC25A43 | HGERT/HG transcript STXBP3
0.96 Ω: HGERT/HG transcript PLEK2 | HGERT/HG transcript SDHC
Ψ 1.01: HGERT/HG transcript DAP | HGERT/HG transcript DBT | HGERT/HG transcript ENG | HGERT/HG transcript FOXC1 | HGERT/HG transcript HIG2 | HGERT/HG transcript HPCAL1 | HGERT/HG transcript KIDINS220 | HGERT/HG transcript KIF1B | HGERT/HG transcript LIMK1 | HGERT/HG transcript NCK2 | HGERT/HG transcript NDE1 | HGERT/HG transcript OTUD5 | HGERT/HG transcript PDIA5 | HGERT/HG transcript PITRM1 | HGERT/HG transcript PRRX1 | HGERT/HG transcript PXN | HGERT/HG transcript RPS6KA2 | HGERT/HG transcript SEC31A | HGERT/HG transcript SENP3 | HGERT/HG transcript SESTD1 | HGERT/HG transcript SH3PXD2B | HGERT/HG transcript TACC1 | HGERT/HG transcript TGM2 | HGERT/HG transcript TIMP2
